# Measured values as given in patent US20220242851A1, “CRYSTAL FORM AND SALT OF QUINAZOLINE COMPOUND AND PREPARATION METHOD THEREOF” (SHENZHEN JINRUI FOUNDATION BIOTECH CO., LTD, priority 2019, published 2022).
# Columns and labels:
# [1] = molecular target: HER4(ErbB4) (Homo sapiens, UniProt Q15303); test: In vitro enzyme activity, HER4 (radiometric, Eurofins); type: biochemical; settings: conclusion
# Method: The purpose of this assay is to detect the in vitro inhibitory activity of compounds on HER1(ErbB1), HER2(ErbB2), and HER4(ErbB4). The enzymes used in this assay are human ErbB 1, ErbB2 and ErbB4. Eurofins Pharma Discovery Service provided the method for activity detection. Steps and method of the assay (96-well plate): A buffer solution of the assay compounds in a dilution of 5-fold (5 μL), polypeptide substrate poly(Glu, Tyr) (4:1) (2.5 μL), ErbB (4-20 ng, 2.5 μL), MnCl2 (50 mM, 1.25 μL), dH2O (3.75 μL), and [γ-^33P]ATP (10 μL) were added, and incubated at 30° C. for 10 minutes. The reaction was terminated by adding 3% phosphoric acid. 10 μL of the sample was taken and transferred to Filtermate A. The filter disc was washed 3 times with 75 mM phosphoric acid and once with methanol. The filter disc was transferred to a sealed plastic bag and the scintillation mixture (4 mL) was added. The intensity of the emitted photon was detected by a scintillation luminescence counter. The CPM (times/min) of the enzyme sample was compared with the CPM of the internal control sample. The level of photon intensity reflected the degree of the tyrosine kinase activity.
# [2] = test system: subcutaneous xenograft tumor of human gastric cancer NCI-N87 cells; test: In vivo pharmacodynamics, NCI-N87 subcutaneous xenograft (Assay Example 4); set-up: species or system mouse; settings: 0.5 mg/kg, compared with the vehicle control group
# Method: Purpose of the assay: in vivo efficacy of the assay compound disclosed herein on subcutaneous xenograft tumor of human gastric cancer NCI-N87 cells in a BALB/c nude mouse model was evaluated.
# Animals of the assay: female BALB/c nude mice, 6-8 weeks old, weighted 18-22 grams; supplier: shanghai sippr bk laboratory animals Ltd.
# (§1) Human gastric cancer NCI-N87 cells were cultured in monolayer in vitro. The culture conditions were RPMI-1640 medium plus 10% fetal bovine serum, 100 U/mL penicillin, 100 μg/mL streptomycin, 37° C., 5% CO2. The passaging was performed by conventional digestion with trypsin-EDTA twice a week. When the cell saturation was 80%-90%, the cells were collected, counted and inoculated.
# 0.2 mL (10×10^6) of NCI-N87 cells (PBS+Matrigel, 1:1) were inoculated subcutaneously on the right back of each mouse. […]
# The assay index was to investigate whether tumor growth is inhibited, delayed or cured. Tumor diameter was measured twice a week with a vernier caliper. […]
# The antitumor efficacy of the compounds was evaluated by TGI (%) or tumor proliferation rate T/C (%). […]
# Statistical analysis included the mean and standard error of mean (SEM) of tumor volume at each time point in each group (See Table 14 for specific data). […] The comparison between groups was analyzed by T-test, and the comparison among three or more groups was analyzed by one-way ANOVA. […]
# [3] = molecular target: T1, CYP3A4 (Homo sapiens, UniProt P08684); test: Inhibition of CYP enzyme activity in human liver microsome, CYP3A4; type: in vitro ADME
# T1 construct: in the assay of CYP enzyme activity in human liver microsome; from tissue; host or cells: human liver microsome
# T1 sequence (P08684 whole entry): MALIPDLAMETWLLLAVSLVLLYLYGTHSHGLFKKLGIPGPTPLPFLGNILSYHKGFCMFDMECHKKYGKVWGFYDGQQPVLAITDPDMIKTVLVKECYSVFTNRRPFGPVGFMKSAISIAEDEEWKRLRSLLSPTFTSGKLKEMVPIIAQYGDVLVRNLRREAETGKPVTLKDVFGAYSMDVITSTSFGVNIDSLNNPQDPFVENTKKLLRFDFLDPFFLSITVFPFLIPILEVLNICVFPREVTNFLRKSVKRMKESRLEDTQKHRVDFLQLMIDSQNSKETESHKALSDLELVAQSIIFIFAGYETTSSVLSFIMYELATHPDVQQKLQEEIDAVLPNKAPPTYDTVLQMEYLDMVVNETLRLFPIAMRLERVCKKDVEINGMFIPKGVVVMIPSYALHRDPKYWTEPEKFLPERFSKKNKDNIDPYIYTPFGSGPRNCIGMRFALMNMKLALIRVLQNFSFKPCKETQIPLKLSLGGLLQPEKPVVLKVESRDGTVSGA
# Description: The results of the compound disclosed herein and the reference compound Poziotinib in the assay of CYP enzyme activity in human liver microsome were shown in the following table (Table 17).
# [4] = test system: subcutaneous xenograft tumor of human esophageal carcinoma OE21 cells; test: In vivo pharmacodynamics, OE21 subcutaneous xenograft (Assay Example 5); set-up: species or system mouse
# Method: Purpose of the assay: in vivo efficacy of the assay compound on subcutaneous xenograft tumor of human esophageal carcinoma OE21 cells in a BALB/c nude mouse model was evaluated.
# Animals of the assay: female BALB/c nude mice, 6-8 weeks old, weighted 17-23 grams; supplier: shanghai sippr bk laboratory animals Ltd.
# as §1, with “esophageal carcinoma OE21” for “gastric cancer NCI-N87”, “U/mL streptomycin and 2 mM glutamine,” for “μg/mL streptomycin,”
# 0.1 ml […] OE21 cells (PBS) were inoculated subcutaneously on the right back of each mouse. When the average tumor volume reached 112 mm^3, administration to each group was started.
# The assay compound was formulated into a 0.15 mg/mL to 0.3 mg/mL clear or suspension solution in the solvents of 10% NMP+10% ethylene glycol stearate+80% water.
# The assay index was to investigate whether tumor growth is inhibited, delayed or cured. Tumor diameter was measured twice a week with vernier caliper. The calculation formula of tumor volume was: V=0.5a×b^2, wherein a and b represent the long and short diameters of tumor, respectively.
# The antitumor efficacy of the compounds was evaluated by TGI (%) or relative tumor proliferation rate T/C (%). TGI (%) reflects the tumor growth inhibition rate. TGI (%) was calculated as follows: TGI (%)=[(1−average tumor volume at the end of administration for a certain treatment group−average tumor volume at the beginning of administration for this treatment group))/(average tumor volume at the end of treatment for a vehicle control group−average tumor volume at the beginning of administration for this vehicle control group)]×100%.
# Relative tumor proliferation rate T/C (%): the calculation formula was as follows: T/C (%)=average tumor volume at the end of administration for a certain treatment group/average tumor volume at the end of treatment for the vehicle control group×100%.
# Statistical analysis included the mean and standard error of mean (SEM) of tumor volume at each time point in each group. One-way ANOVA was used for comparison among three or more groups. […] SPSS 17.0 was used for all data analysis. p<0.05 was considered a significant difference.
# HER4(ErbB4), sequence (Q15303 26-1308): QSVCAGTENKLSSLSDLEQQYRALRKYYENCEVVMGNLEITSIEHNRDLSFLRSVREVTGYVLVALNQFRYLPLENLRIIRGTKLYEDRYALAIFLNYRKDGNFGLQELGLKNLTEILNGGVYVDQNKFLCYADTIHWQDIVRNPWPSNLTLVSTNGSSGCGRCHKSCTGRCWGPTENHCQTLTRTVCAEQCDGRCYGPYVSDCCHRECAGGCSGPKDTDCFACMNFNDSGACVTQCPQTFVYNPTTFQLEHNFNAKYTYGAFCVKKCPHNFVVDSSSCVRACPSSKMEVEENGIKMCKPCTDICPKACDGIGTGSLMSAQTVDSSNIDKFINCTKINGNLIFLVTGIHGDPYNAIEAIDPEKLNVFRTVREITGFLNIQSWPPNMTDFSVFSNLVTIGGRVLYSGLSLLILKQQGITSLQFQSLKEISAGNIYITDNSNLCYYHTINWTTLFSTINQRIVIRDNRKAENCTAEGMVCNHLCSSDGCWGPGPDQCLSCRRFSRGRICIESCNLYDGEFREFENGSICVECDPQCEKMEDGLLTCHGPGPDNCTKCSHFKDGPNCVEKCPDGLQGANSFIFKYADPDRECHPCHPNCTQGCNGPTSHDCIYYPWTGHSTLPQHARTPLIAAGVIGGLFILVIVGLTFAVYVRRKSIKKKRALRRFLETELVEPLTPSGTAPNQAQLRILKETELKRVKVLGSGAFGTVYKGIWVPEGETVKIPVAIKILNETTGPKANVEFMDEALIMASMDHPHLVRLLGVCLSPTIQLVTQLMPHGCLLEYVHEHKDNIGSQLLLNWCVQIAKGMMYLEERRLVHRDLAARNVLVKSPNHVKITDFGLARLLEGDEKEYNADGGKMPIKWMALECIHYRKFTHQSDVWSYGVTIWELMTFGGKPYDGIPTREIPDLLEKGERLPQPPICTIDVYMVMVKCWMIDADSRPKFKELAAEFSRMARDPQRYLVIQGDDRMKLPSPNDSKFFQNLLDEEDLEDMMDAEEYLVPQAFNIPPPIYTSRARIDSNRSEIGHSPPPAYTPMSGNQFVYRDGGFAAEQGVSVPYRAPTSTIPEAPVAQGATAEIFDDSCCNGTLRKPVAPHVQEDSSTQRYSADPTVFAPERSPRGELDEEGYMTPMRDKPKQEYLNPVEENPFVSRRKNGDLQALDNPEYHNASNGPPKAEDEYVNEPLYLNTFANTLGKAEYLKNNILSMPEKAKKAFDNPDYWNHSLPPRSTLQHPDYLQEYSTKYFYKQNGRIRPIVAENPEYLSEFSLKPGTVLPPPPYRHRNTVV
structure (smiles),measurement,setting,value
C=CC(=O)N1[C@@H]2CC[C@H]1C[C@H](Nc1cc3c(Nc4ccc(Cl)c(Cl)c4F)ncnc3cc1OC)C2 [Compound of formula (I)],inhibitory activity on HER4 (in words),[1],significant inhibitory activity
same,tumor inhibitory effect (in words),[2],significant tumor inhibitory effect
same,inhibitory activity on CYP3A4 (in words),[3],no inhibitory activity
same,body weight and clinical signs (in words),[4]; 2/1.5 mg/kg,varying degrees of body weight loss and dandruff
same,tumor inhibitory effect (in words),"[4]; 2/1.5 mg/kg, compared with the vehicle control group",significant tumor inhibitory effect
same,Tumor volume (Day 21),"[4]; 2/1.5 mg/kg, Day 21, Mean + SEM",55 ± 13 mm3
same,effect on the body weight of mice (in words),"[4]; discussion, high-dose group",little effect on the body weight of mice
same,efficacy at low dose (in words),[4]; low dose of 0.5 mpk,comparable to that of the reference compound Poziotnib and the compound of formula (I) at a high dose of 1.5 mpk
same,"dark yellow urine, suggestion of toxicity (in words)","[4]; mouse, in vivo",without the toxicity suggestion of dark yellow urine
